The target in one assay is T1, LOXL2 (Homo sapiens, UniProt Q9Y4K0).
T1 construct: purchased R&D Systems/Bio-techne
T1 sequence (Q9Y4K0 26-774): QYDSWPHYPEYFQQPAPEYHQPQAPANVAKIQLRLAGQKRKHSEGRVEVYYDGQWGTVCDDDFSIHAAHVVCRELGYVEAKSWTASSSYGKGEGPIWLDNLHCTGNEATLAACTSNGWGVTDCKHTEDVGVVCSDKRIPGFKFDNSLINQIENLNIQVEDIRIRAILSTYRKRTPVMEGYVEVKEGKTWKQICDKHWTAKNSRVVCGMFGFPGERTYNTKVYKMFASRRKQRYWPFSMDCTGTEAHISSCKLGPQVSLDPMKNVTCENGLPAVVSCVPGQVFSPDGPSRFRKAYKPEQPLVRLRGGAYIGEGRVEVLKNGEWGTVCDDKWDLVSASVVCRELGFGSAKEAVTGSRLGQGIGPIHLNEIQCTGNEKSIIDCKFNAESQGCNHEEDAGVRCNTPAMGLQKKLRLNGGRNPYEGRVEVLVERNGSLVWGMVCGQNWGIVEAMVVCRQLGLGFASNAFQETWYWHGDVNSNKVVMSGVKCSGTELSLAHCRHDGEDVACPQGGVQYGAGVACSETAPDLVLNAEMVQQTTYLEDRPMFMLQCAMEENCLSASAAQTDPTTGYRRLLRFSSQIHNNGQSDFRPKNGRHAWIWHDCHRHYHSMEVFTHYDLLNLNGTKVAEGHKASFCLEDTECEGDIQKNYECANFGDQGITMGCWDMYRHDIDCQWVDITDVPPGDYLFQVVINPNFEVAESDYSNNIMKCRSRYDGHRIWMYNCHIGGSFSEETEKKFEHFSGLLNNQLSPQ
Kind of assay: LOX isoform activity assay (ROS Glo), LOXL2. Type of assay: biochemical. Here is the method:
(§1) LOX was extracted from pig skin by previously described methods (Shackleton and Hulmes, 1990). LOXL2 and LOXL3 were obtained from R&D Systems/Bio-techne. The Promega ROS Glo assay kit (G8821) was used to assess enzyme activity. Overall, test compound was added to either 384 well assay plates (Greiner) using a Labcyte Echo™ Acoustic Handler or to 96 well plates for a final assay concentration of 100, 30, 10, 3, 1, 0.3, 0.1, 0.03, 0.01 and 0.003 μM final assay concentration. Enzymes were diluted according to specific pre-determined activity in assay buffer (100 mM CHES, pH 9, 0.05% (w/v) pluronic F-127, 0.5% (w/v) BSA, 1 mM MgCl2, 1 M urea, 100 mM NaCl) and added to the plate. For LOXL2, the mixture was incubated for 20 min, 1 h or 20 h; for LOX and LOXL3, incubation time was 1 h. Cadaverine and H2O2 substrate were then added to each well (final assay concentration 19.56 mM and 25 μM respectively) and the plates were incubated for 1.5 h (for LOX) or 1 h (for LOXL2 and LOXL3) at room temperature. Finally, luciferin detection reagent was added and plates were incubated for 20 min at room temperature, protected from light. Luminescence was measured using a BMG LABTECH PHERAstar FS reader and resulting IC50 values were calculated using GraphPad Prism software.
In another setting, LOXL2 enzyme was diluted according to specific pre-determined activity in assay buffer (100 mM CHES, pH 9, 0.05% (w/v) pluronic F-127, 0.5% (w/v) BSA, 1 mM MgCl2, 1 M urea, 100 mM NaCl). Overall, 0.5 μl test compound was added to 40 μl assay buffer+LOXL2 at 100, 30, 10, 3, 1, 0.3, 0.1, 0.03, 0.01 and 0.003 μM (final concentration) in a 96-well white polystyrene, flat bottom plates (Fisher) and incubated for the indicated time at room temperature. 10 μl of assay buffer containing 97.8 mM cadaverine and 125 μM H2O2 substrate (final assay concentration 19.56 mM and 25 μM respectively) were added to each well and plates were incubated for 1 h at room temperature. Finally, 50 μl per well luciferin detection reagent was added and plates were incubated for 20 min at room temperature, protected from light. Luminescence was measured with an integration time of 500 ms per well using a SpectaMax M5 plate reader and resulting IC50 values were calculated using GraphPad Prism software.

In another assay the target is T2, LOX (Sus scrofa, UniProt P45845).
T2 construct: LOX was extracted from pig skin by previously described methods; from tissue; host or cells: pig skin
T2 sequence (P45845 1-249): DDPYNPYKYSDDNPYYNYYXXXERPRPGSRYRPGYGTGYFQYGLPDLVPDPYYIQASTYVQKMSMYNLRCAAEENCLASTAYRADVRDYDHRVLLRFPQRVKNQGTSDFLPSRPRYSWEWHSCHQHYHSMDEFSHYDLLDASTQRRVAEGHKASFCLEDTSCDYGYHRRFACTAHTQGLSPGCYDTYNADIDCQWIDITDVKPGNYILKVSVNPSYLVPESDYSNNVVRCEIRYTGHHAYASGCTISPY
Kind of assay: LOX isoform activity assay (ROS Glo), LOX. Type of assay: biochemical, pig. To be noted: 1 h incubation with enzyme. The procedure: as §1

Where [1] appears, read: 1 hr incubation with enzyme; read-out: LOXL2 IC50 b) 1 hr.
The mark [2] stands for this setting: 20 hr incubation with enzyme; read-out: LOXL2 IC50 c) 20 hr.

Consider ten molecules from patent US20220017516A1, “LOX INHIBITORS” (THE INSTITUTE OF CANCER RESEARCH: ROYAL CANCER HOSPITAL, priority 2018, published 2022).

Molecules are shown by their SMILES. Read-outs that look alike come from different tables or passages of the source. Where only a bound is given, the exact number is not on record here.

Usually IC50 stands for the concentration needed to halve the response being measured. In the case of `CCOc1ccc(N2C[C@H]3CN(C(=O)C(C)S(=O)(=O)CCN)C[C@@H]2C(C)(C)C3)cc1` (mixture of isomers) [Example 39, 2-((2-aminoethyl)sulfonyl)-1-((1S,5S)-6-(4-ethoxyphenyl)-9,9-dimethyl-3,6-diazabicyclo[3.2.2]nonan-3-yl)propan-1-one], the IC50 on LOXL2 (setting [1]) amounted to 0.41 µM; against LOX it was 10 µM.

On to `CC1(C)C[C@@H]2CN(CCS(=O)(=O)CCN)C[C@H]1N(c1ccc(N3CCS(=O)(=O)CC3)cc1)C2` [Example 5, 4-(4-((1R,5S)-3-(2-((2-aminoethyl)sulfonyl)ethyl)-9,9-dimethyl-3,6-diazabicyclo[3.2.2]nonan-6-yl)phenyl)thiomorpholine 1,1-dioxide], for which, at LOXL2 (setting [2]), the IC50 is 0.48 µM.

Regarding `CCOc1ccc(N2C[C@H]3CN(CCCS(=O)(=O)CCN)C[C@@H]2C(C)(C)C3)cc1` [Example 6, 2-((3-((1R,5S)-6-(4-ethoxyphenyl)-9,9-dimethyl-3,6-diazabicyclo[3.2.2]nonan-3-yl)propyl)sulfonyl)ethan-1-amine], the figures for the IC50 on LOXL2 (setting [2]) and against LOX were 2.5 µM and 58 µM, respectively.

Consider `CCOc1ccc(N2C[C@@H]3CC[C@H]2CN(C(=O)CS(=O)(=O)CCN)C3)cc1` [Example 9, 2-((2-aminoethyl)-sulfonyl)-1-((1S,5S)-6-(4-ethoxyphenyl)-3,6-diazabicyclo-[3.2.2]nonan-3-yl)-ethan-1-one], for which the IC50 at LOXL2 (setting [2]) was 0.34 µM; against LOX it was > 100 µM.

For the molecule `CC1(C)C[C@@H]2CN(C(=O)CS(=O)(=O)CCN)C[C@H]1N(c1ccc(N3CCS(=O)(=O)CC3)cc1)C2` [Example 10, 2-((2-aminoethyl)-sulfonyl)-1-((1S,5S)-6-(4-(1,1-dioxido-thiomorpholino)-phenyl)-9,9-dimethyl-3,6-diaza-bicyclo[3.2.2]nonan-3-yl)ethan-1-one], at LOXL2 (setting [2]), the 50% inhibitory concentration (IC50) is 0.94 µM.

With `CC1(C)C[C@@H]2CN(C(=O)C(F)S(=O)(=O)CCN)C[C@H]1N(c1ccc(N3CCS(=O)(=O)CC3)cc1)C2` (stereo partly drawn) [Example 17, 2-((2-aminoethyl)-sulfonyl)-1-((1S,5S)-6-(4-(1,1-dioxido-thiomorpholino)-phenyl)-9,9-dimethyl-3,6-diaza-bicyclo[3.2.2]nonan-3-yl)-2-fluoroethan-1-one], the IC50 on LOXL2 (setting [1]) is 0.11 µM.

Consider `CCOc1ccc(N2C[C@H]3CN(C(=O)c4ccc(S(=O)(=O)CCN)cc4)C[C@@H]2C(C)(C)C3)cc1` [Example 31, (4-((2-aminoethyl)sulfonyl)phenyl)((1S,5S)-6-(4-ethoxyphenyl)-9,9-dimethyl-3,6-diazabicyclo[3.2.2]nonan-3-yl)methanone], for which the IC50 stood at 16 µM on LOXL2 (20 min incubation with enzyme; read-out: LOXL2 IC50 a) 20 min) and 96 µM against LOX.

With `CC1(C)C[C@@H]2CN(C(=O)NCCO)C[C@H]1N(c1ccc(OCCCS(=O)(=O)CCN)cc1)C2` [Example 34, (1S,5S)-6-(4-(3-((2-aminoethyl)sulfonyl)propoxy)phenyl)-N-(2-hydroxyethyl)-9,9-dimethyl-3,6-diazabicyclo[3.2.2]nonane-3-carboxamide], at LOXL2 (setting [2]), the IC50 turned out to be 9.3 µM.

Turning to `CC1(C)C[C@@H]2CN(C(=O)N3CCS(=O)(=O)CC3)C[C@H]1N(c1ccc(OCCCS(=O)(=O)CCN)cc1)C2` [Example 35, ((1S,5S)-6-(4-(3-((2-aminoethyl)sulfonyl)-propoxy)phenyl)-9,9-dimethyl-3,6-diaza-bicyclo[3.2.2]nonan-3-yl)(1,1-dioxido-thiomorpholino) methanone], on LOXL2 (setting [2]), the IC50 was 6.7 µM.

Turning to `CCNC(=O)N1C[C@@H]2CN(c3ccc(OCCCS(=O)(=O)CCN)cc3)[C@H](C1)C(C)(C)C2` [Example 36, (1S,5S)-6-(4-(3-((2-aminoethyl)sulfonyl)propoxy)phenyl)-N-ethyl-9,9-dimethyl-3,6-diazabicyclo[3.2.2]nonane-3-carboxamide], the half-inhibitory concentration (IC50) at LOXL2 (setting [2]) was 5.1 µM; against LOX, 4.5 µM.
